Patent publication US11680904B2, “Automated system for high-throughput all-optical dynamic electrophysiology” (The George Washington University, priority 2016, dated 2023)

How the values were obtained:
[1] = system: ChR2-CMs (neonatal rat ventricular CMs); format: cell-based
Description: (§1) Primary CMs were used through the study for all illustrative experiments with pharmacological treatments, mainly because at the current stage, they are perceived as more mature than the hiPSC-CMs and their response to drugs has been better documented. Briefly, neonatal (2-3 day old) SPRAGUE-DAWLEY® rats were sacrificed and ventricular tissue was removed per an approved Stony Brook University IACUC protocol. The tissue was digested overnight at 4° C. using 1 mg/mL trypsin (US BIOCHEMICALS®, Cleveland, Ohio) in Hanks' Balanced Salt Solution (HBSS, GIBCO® INVITROGEN™, Carlsbad, Calif.). The next morning, the tissue was serially digested using 1 mg/mL collagenase (WORTHINGTON BIOCHEMICAL®, Lakewood, N.J.) in HBSS at 37° C. and pipetted into conical tubes and placed on ice. After centrifugation, cells were re-suspended in culture medium M199 (GIBCO®) supplemented with […] L-glutamine (GIBCO®), 0.05 μg/mL penicillin-streptomycin (MEDIATECH CELLGRO™, Kansas City, Mo.), 0.2 μg/mL vitamin B12 (SIGMA ALDRICH®, St. Louis, Mo.), 10 mM HEPES (GIBCO®), 3.5 mg/mL D-(+)-glucose (SIGMA ALDRICH®), and 10% fetal bovine serum, FBS (GIBCO®). Fibroblasts were removed via a two-step pre-plating process, where the cell suspension was plated in a flask and incubated (37° C., 5% CO2) for 45-60 minutes and switched to a new flask and the incubation repeated. CMs were then counted using a hemocytometer prior to plating in glass-bottom 96-well plates (see Jia, Z. et al. Circulation. Arrhythmia and electrophysiology 4, 753-760, (2011) and Chung, C. Y., et al. J Cardiovasc Electrophysiol […], 1323-1329, (2007)).
Adenoviral delivery of ChR2(H134R) to primary CMs was performed in suspension (see Ambrosi, C. M. et al. Methods Mol Biol 1181, 215-228, (2014)). Briefly, the plasmid pcDNA3.1/hChR2(H134R)-EYFP was used (ADDGENE™, Cambridge, Mass.; deposited by Dr. K. Deisseroth) (see Zhang, F. et al. Nature 446, 633-639, (2007)), to develop an adenoviral construct (pBR322 backbone) with a ubiquitous CMV promoter. First-generation adenovirus was generated by homologous recombination of the Ad-CMV-ChR2-eYFP into pTG3604; further propagation and purification of the virus genomes was done by transfection into HEK293 cells and CsC1 banding. CMs were re-suspended in 2% FBS M199 after counting and diluted to 1.125×10^6 cells/mL and infected using an optimized MOI of 15 for two hours in an incubator (37° C., 5% CO2) with gentle agitation every 20 minutes. The MOI had been optimized during preliminary experiments to achieve >95% ChR2 expression in CMs within 48 hours using titer of 10^12 units/mL diluted in PBS, confirmed by eYFP reporter visualization and minimal cell death (by propidium iodide staining) (see Ambrosi, C. M., et al. Prog Biophys Mol Biol 115, 294-304, (2014) and Ambrosi, C. M. et al. Methods Mol Biol 1181, 215-228, (2014)). After two hours, the cell suspension was centrifuged and culture medium was removed and replaced with fresh 10% FBS M199 for plating (see Ambrosi, C. M. et al. Methods Mol Biol 1181, 215-228, (2014)).
Non-infected control CMs and ChR2-CM cells (for OptoHTS) were plated using a concentration of 1.125×10^6 cells/mL to achieve a plating density of 470,000 cells/cm^2. For CM/ChR2-HEK co-cultures, CMs at a concentration of 1.125×10^6 cells/mL were mixed in a conical with trypsinized ChR2-HEK cells, pre-diluted to achieve ratios 150:1 CM to ChR2-HEK. After centrifugation, the media was removed and the cells were re-suspended in fresh 10% FBS M199 to achieve the same density of plating as the control CMs.
All functional experiments were carried out 4-5 days after cell plating, at room temperature in Tyrode's solution containing the following (in mM): NaCl, 135; MgCl2, 1; KCl, 5.4; CaCl2, 1.5; NaH2PO4, 0.33; glucose, 5; and HEPES, 5 adjusted to pH 7.4 with NaOH (see Chung, C. Y., et al. J Cardiovasc Electrophysiol 18, 1323-1329, (2007)). […]

"spark"-ChR2-CMs = assay: sOptoHTS: all-optical electrophysiology of CMs sprinkled with "spark" ChR2-HEK cells; format: cell-based, rat
Description: as §1
The cell delivery approach employs “spark” cells (ChR2(H134R)-HEK293), a stable cell line showing near 100% expression of ChR2. “Spark” cells were developed by transfecting HEK293 cells (CRL-1573™ ATCC®, Manassas, Va.) with the ChR2 plasmid pcDNA3.1/hChR2(H134R)-EYFP using LIPOFECTAMINE® 2000 (INVITROGEN™, Carlsbad, Calif.). […]

hiPS-CMs = assay: Optical calcium recording in hiPS-CMs (OptoDyCE); format: cell-based, human; conditions: 1 μM, 10 min
Description: Frozen human iPSC-derived CMs (ICELL® Cardiomyocytes^2 CMC-100-012-001, CELLULAR DYNAMICS INTERNATIONAL™, Madison, Wis.) were thawed per the manufacturer's instructions. The cells were plated at the recommended plating density of 156,000 cells/cm^2 on fibronectin-coated 96-well glass-bottom plates. In some experiments, cells were grown in three-dimensional microgrooved scaffolds. These fibronectin-coated PDMS (SYLGARD® 184, DOW CORNING®, Midland, Mich.) scaffolds with microtopographical features (see FIG. 16, panel “e,” peak-to-peak 120 μm, depth of 50 μm) were produced by molding onto metal templates fabricated by acoustic micromachining (see Entcheva, E. et al. Lab Chip 5, 179-183, (2005); Chung, C. Y. et al. FASEB journal: official publication of the Federation of American Societies for Experimental Biology 25, 851-862, (2011); and Chung, C. Y., et al. J Cardiovasc Electrophysiol 18, 1323-1329, (2007)); and small circular microgrooved scaffolds were punched-out and placed in the 96-well plates. […]
Optical recording of membrane voltage, Vm, was performed using the synthetic voltage-sensitive dye Di-4-ANBDQBS, spectrally-compatible with ChR2. […] Intracellular calcium, [Ca^2+]i, was recorded using QUEST RHOD-4™, AM diluted from a 0.5 mM stock solution dissolved in DMSO with 20% PLURONIC® to 10 μM in Tyrode's solution. […]

C[S+](C)[O-] [DMSO]
effect on APD / electrophysiological measurements [1]: not seen to affect the electrophysiological (EP) measurements

CN(CCOc1ccc(NS(C)(=O)=O)cc1)CCc1ccc(NS(C)(=O)=O)cc1 [dofetilide, Dofetilide]
drug-induced AP variation, lower dose ("spark"-ChR2-CMs; 0.2 μM, paced at 1 Hz): sporadic EADs
drug-induced AP variation, higher dose ("spark"-ChR2-CMs; 2 μM, paced 2 Hz): large temporal variability in AP morphology
early afterdepolarizations (EADs) versus dose ("spark"-ChR2-CMs; optically paced samples, FIGS. 10A-10C): dose-dependent increase in EADs
calcium instability / spatial heterogeneity ([1]; 0.02 μM, paced at 1 Hz, 0.539 mW/mm^2 10 ms light pulses): localized spontaneous calcium release (SCR)
spatial variability in APD (dispersion of repolarization) ([1]; 2 μM, 1 Hz pacing, versus control, p<0.05 for APD50): increases spatial variability in APD
effect on APD ([1]; 2 μM, 2 Hz optical pacing): APD prolongation
voltage instabilities ([1]; 2 μM, 2 Hz optical pacing): alternans
relative APD50 change versus pacing frequency ([1]; at higher frequency, opposite to reverse-use dependence): enhanced relative APD50 prolongation

CC(C)NCC(O)c1ccc(O)c(O)c1 (stereo not shown) [isoproterenol]
calcium-mediated pacing activity in quiescent cells (hiPS-CMs; quiescent hiPS-CMs): calcium-mediated pacing activity was induced
rate of pacing in spontaneously beating cells (hiPS-CMs; spontaneously beating hiPS-CMs): rate of pacing was accelerated

COC(=O)C1=C(C)NC(C)=C(C(=O)OC)C1c1ccccc1[N+](=O)[O-] [nifedipine, Nifedipine]
concentration of maximum APD shortening ([1]; optical pacing 1 Hz): around 1 μM
concentration up to which CTD monotonically decreases ([1]; optical pacing 1 Hz): up to 10 μM
